Common to all, as to test: NCI-60 cell line screen, 48 h
Assay [1] has as its system MDA-MB-231 breast.
Assay [2] deals with ACHN renal.
For assay [3], the system named is EKVX NSCLC.
Assay [4] relates to RPMI-8226 leukemia.
The test system of assay [5] is SNB-75 CNS.
Assay [6] deals with NCI-H23 lung.
Assay [7] relates to OVCAR-8 ovarian.
For assay [8], the system named is UACC-257 melanoma.
Assay [9] deals with NCI/ADR-RES ovarian.
The subject of assay [10] is SF-268 CNS.

Several values for one entry are separate records, joined by “and”; a condition that tells them apart may be missing. Equal values may be shown once.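 Method: 48-hour compound exposure of cells in 96-well plates, five concentrations, linear interpolation of endpoints. Here, GI50 denotes the concentration required for 50% inhibition of growth. TGI: total growth inhibition.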

For the molecule `CC[C@@]1(O)CC(OC2CC(N3CCOCC3)C(O)C(C)O2)c2c(O)c3c(c(O)c2[C@H]1O)C(=O)c1cccc(O)c1C3=O` (stereo partly drawn), the TGI in assay [1] was 1.94 µM; in assay [2], 0.0815 µM; in assay [3], 1.02 µM and 1.63 µM; in assay [4] it was 2.15 µM and 5.08 µM; in [5], 0.93 µM and 0.399 µM; in assay [6] it was 1.95 µM and 1.09 µM. In addition, the TGI was 1.07 µM and 5.5 µM in [7]; 1.34 µM and 0.69 µM in [8]; 1.55 µM and 4.61 µM in assay [9]; 3.27 µM and 2.1 µM in assay [10]. Also, the GI50 in [3] was 0.241 µM; in assay [4], 0.0561 µM; in assay [5], 0.0452 µM; in assay [6], 0.101 µM; in assay [7] it was 0.0285 µM; in [8] it was 0.108 µM. Also, the GI50 is 0.0133 µM in assay [9] and 0.091 µM in [10].

For the molecule `N#CC1(CCCI)CCCC1`, the TGI in [2] is greater than 100 µM; in assay [3] it was greater than 100 µM; in [5], 20.2 µM; in [6], 24.7 µM; in assay [7] it was greater than 100 µM; in [8], greater than 100 µM. The molecule further came in with a TGI in assay [10] of 41.3 µM.

Turning to `C[C@]12CC[C@H]3[C@@H](CC=C4C[C@@H](O)CC[C@@]43C)[C@@H]1C/C(=C\c1ccncc1)[C@@H]2O`, the TGI came out at 99.2 µM in assay [1]; 50.5 µM in [2]; 49.1 µM in assay [3]; 48.9 µM in [4]; 62.8 µM in [5]; 33.6 µM in assay [6]. Also, the TGI in [7] stood at 39.8 µM; in [8] it was 40.4 µM; in [9] it was 67.7 µM; in assay [10], 54.4 µM.

On to `CC(=O)OC(C(=O)O)C(OC(C)=O)C(OC(C)=O)C(OC(C)=O)C(=O)O` (stereo not drawn), for which the TGI in [1], in assay [3], in assay [4], in assay [6], in assay [7] and in assay [8] was greater than 100 µM in each case. In addition, the TGI in [9] and in assay [10] was greater than 100 µM each time.

Regarding `N#Cc1c(-c2ccc([N+](=O)[O-])cc2)c2c([nH]c1=O)-c1ccccc1CCC2`, the TGI in [1], in assay [2], in assay [3], in assay [4], in assay [6] and in assay [7] was greater than 100 µM throughout. The TGI in assay [8], in assay [9] and in assay [10] was greater than 100 µM each time.

For the molecule `NC1CCN(c2nc3ccccc3c3c2CCCC3)CC1`, the TGI in [1] is 12.8 µM; in assay [2] it was 22.4 µM; in [3], 21.4 µM; in [4] it was 11.1 µM; in [5] it was 22.1 µM; in assay [6], 28.2 µM. Further, the TGI amounted to 32.8 µM in assay [7], 4.31 µM in [8], 28.8 µM in [9] and 33 µM in assay [10].

Take `Cc1c(-c2ccccc2)c(C#N)c2nnn(-c3ccc(Cl)cc3)c(=O)n12`: the TGI in [1], in assay [2], in assay [3], in assay [4], in assay [5] and in assay [6] was greater than 100 µM in each case. For the same molecule, the TGI in [7], in assay [8], in [9] and in assay [10] was greater than 100 µM each time.

As to `CC(C)CNC1=NCC(C)S1` (stereo not drawn), the TGI in assay [1], in assay [2], in assay [3], in [4], in assay [5] and in assay [6] was greater than 100 µM in each case. Further, the TGI in [8] and in assay [10] was greater than 100 µM in each case.

With `CC(C)CCN(CCC(C)C)CC(=O)Nc1ccc(S(=O)(=O)c2ccc(NC(=O)CN(CCC(C)C)CCC(C)C)cc2)cc1`, the GI50 in [1] is 2.08 µM; in [2] it was 1.94 µM; in assay [3], 3.27 µM; in assay [5] it was 13.3 µM; in [6], 1.81 µM; in assay [7], 2.89 µM. Also, the GI50 in [8] is 3.01 µM; in [9] it was 2.93 µM; in assay [10], 1.51 µM. In addition, the TGI in assay [1] is 6.39 µM; in assay [2], 4.68 µM; in assay [3], 18.8 µM; in assay [5], 42 µM; in [6] it was 4.84 µM; in [7], greater than 100 µM. For the same molecule, the TGI is 13.6 µM in assay [8], greater than 100 µM in [9] and 4.68 µM in assay [10].

Regarding `C=C(CN(C)C)C(=O)c1ccccc1OC`, the TGI in assay [1] is 28 µM; in assay [2], 28.2 µM; in [3] it was 48.6 µM; in assay [4], greater than 62.7 µM; in [5], 61 µM; in assay [6], 33.7 µM. Besides, the TGI in [7] was found to be 50 µM; in [8], 30 µM; in [9] it was 65.3 µM; in assay [10] it was 63.7 µM.

Source of the values: PubChem BioAssay (NCI).
